Experimental data reported in US4803197A, “2,1-benzothiazepine-2,2-dioxide-5-carboxylic acid derivatives” (Ciba-Geigy Corporation, priority 1987, dated 1989).

Tests used:
[1] = system: carrageenin pleurisy; experiment: carrageenin-induced pleurisy model of inflammation in the rat; assay type: in vivo; details: 10 mg/Kg p.o.
Protocol: Antiinflammatory activity is determined by measuring the inhibition of the edema and of the mononuclear cell influx after oral administration in the rat model in which pleurisy is first induced by injecting carrageenin into the pleural cavity, e.g. according to A. P. Almeida et al., J. Pharmacol. Exp. Therap. 214, 74 (1980).

[2] = system: accumulation of neutrophils; experiment: accumulation of neutrophils into carrageenin-impregnated polyurethane sponges in the rat; assay type: in vivo; details: 25 mg/Kg p.o.
Source text: The inhibition of the chemotactic activation of neutrophils can also be determined in vivo by measuring the inhibition of the accumulation of neutrophils into carrageenin impregnated polyurethane sponges after oral administration in the rat.

[3] = system: bovine nasal cartilage; experiment: synovial catabolin-induced degradation of bovine nasal cartilage; assay type: cell-based; details: at a concentration of about 1×10^-5 M
Source text: The inhibition of cartilage matrix degradation can also be similarly determined by measuring the decrease in proteoglycan release on synovial catabolin-induced degradation of bovine nasal cartilage.

[4] = system: leukotriene and 5-HETE formation; experiment: leukotriene and 5-HETE formation in whole blood after oral administration in rats; assay type: in vivo; details: 50 mg/Kg p.o.
Protocol: Furthermore inhibition of the formation of leukotrienes and 5-HETE is determined e.g. by measuring their concentration in whole blood after oral administration in rats.

[5] = system: bovine nasal cartilage; experiment: bovine nasal cartilage-synovium co-culture model of cartilage matrix degradation; assay type: cell-based; details: at a concentration of about 1×10^-5 M
Protocol: The inhibition of cartilage matrix degradation can be determined in vitro in the bovine nasal cartilage-synovium co-culture model of cartilage matrix degradation which is carried out as follows:
The proteoglycan matrix of bovine nasal septum cartilage is labeled in vitro by incorporation of ^35 S into glycosaminoglycan. Cartilage slices are incubated overnight in a sulfate free medium containing ^35 S-sodium sulfate. ^35 S-Labeled cartilage slices are co-cultured with normal synovium explants in multiwell tissue culture plates. After 4 days incubation a 100μl aliquot of medium is counted. Cartilage slices are hydrolyzed and a 100μl aliquot of cartilage hydrolysate is counted. The percent ^35 S released into the medium is determined and the percent inhibition of matrix degradation is calculated.

[6] = system: human neutrophils; experiment: inhibition of binding of f-MLP to human neutrophils in vitro; details: at a concentration of about 1×10^-6 M; sodium salt
Protocol: The inhibition of the chemotactic activation of neutrophils is determined in vitro, e.g. by measuring the inhibition of the binding of f-MLP (formyl-methionylleucyl-phenylalanine) to human neutrophils in vitro as follows:
Human neutrophils are isolated by a modification of the procedure of Ferrante and Thong (J. Immunol. Methods 24:389, 1978). Red cells remaining in the neutrophil preparation are lysed by separate treatments with 0.83% NH4 Cl and 0.1M tris-HCl, pH 7.5. Neutrophils are incubated in Hanks' buffer at 0° C. for 60 minutes with 15 nM ^3 H-f-MLP and test compound. Aliquots of the incubates are filtered and total ^3 H-f-MLP bound is measured. Non-specific binding in the presence of excess non-radioactive f-MLP is substracted, and percent inhibition of binding by the test drug is calculated. Final concentrations of solvents such as dimethylacetamide or ethanol which may be used to dissolve the test compound cannot exceed 1% in the incubation mixture.

`O=C(Nc1ccc(Cl)cc1)C1=C(O)CS(=O)(=O)N(Cc2ccc(Cl)cc2)c2ccccc21.[Na]` [Example 2, N-(4-chlorophenyl)-1-(4-chlorophenylmethyl)-1,3-dihydro-4-hydroxy-2,1-benzothiazepine-5-carboxamide-2,2-dioxide sodium salt] was tested, and the “inhibition of edema formation in the pleurisy model of inflammation” value [1] was “significantly inhibits”, the “inhibition of mononuclear cell influx in the pleurisy model of inflammation” value [1] was “significantly inhibits” and the “accumulation of neutrophils into carrageenin-impregnated sponges” value [2] was “effectively diminishes”. The “inhibition of release of proteoglycan in catabolin-induced degradation of cartilage” value [3] was “inhibits”, the “inhibition of 5-HETE formation in whole rat blood” value [4] was “effectively inhibits” and the “inhibition of leukotriene formation in whole rat blood” value [4] was “effectively inhibits”. The “inhibition of release of proteoglycan in synovium-induced degradation of cartilage” value [5] was “inhibits” and the “inhibition of the binding of f-MLP to human neutrophils” value [6] was “effective in inhibiting”.
